# Data taken from ChEMBL document CHEMBL5465560, “Selectivity Literature for EUbOPEN Chemogenomic Library” (2024).
# Tests used:
# [1] = target: Serine/threonine-protein kinase N2 (Homo sapiens, UniProt Q16513); test: Selectivity interaction (Ambit KINOMEscan and KiNATiv profiling in Jurkat cells) EUB0000090b PKN2; type: cell-based; conditions: at 1 µM
# [2] = target: T1, Serine/threonine-protein kinase tousled-like 1 (Homo sapiens) (UniProt Q9UKI8); test: Selectivity interaction (Ambit KINOMEscan and KiNATiv profiling in Jurkat cells) EUB0000090b TLK1; type: cell-based; conditions: at 1 µM
# T1 sequence (whole entry): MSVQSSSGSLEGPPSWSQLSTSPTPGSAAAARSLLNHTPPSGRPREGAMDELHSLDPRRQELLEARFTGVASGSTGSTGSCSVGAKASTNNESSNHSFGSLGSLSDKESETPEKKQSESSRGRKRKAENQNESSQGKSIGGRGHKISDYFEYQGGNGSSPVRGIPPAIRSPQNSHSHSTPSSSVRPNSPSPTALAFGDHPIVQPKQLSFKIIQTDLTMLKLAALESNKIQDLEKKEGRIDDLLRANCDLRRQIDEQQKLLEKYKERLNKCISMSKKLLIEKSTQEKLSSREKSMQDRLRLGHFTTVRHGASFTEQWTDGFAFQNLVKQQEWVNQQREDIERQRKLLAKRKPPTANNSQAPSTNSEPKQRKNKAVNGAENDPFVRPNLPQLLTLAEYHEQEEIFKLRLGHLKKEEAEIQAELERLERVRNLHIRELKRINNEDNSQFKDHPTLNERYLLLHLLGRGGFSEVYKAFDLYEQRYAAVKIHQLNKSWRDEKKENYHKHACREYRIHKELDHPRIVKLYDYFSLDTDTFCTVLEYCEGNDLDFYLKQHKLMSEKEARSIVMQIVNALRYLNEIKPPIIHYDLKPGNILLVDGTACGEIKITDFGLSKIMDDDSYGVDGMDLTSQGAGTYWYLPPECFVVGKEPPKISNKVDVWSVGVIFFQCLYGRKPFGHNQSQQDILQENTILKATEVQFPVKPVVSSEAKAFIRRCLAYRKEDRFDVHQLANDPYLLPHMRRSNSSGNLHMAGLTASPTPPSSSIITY
# [3] = target: Dual specificity protein kinase CLK3 (Homo sapiens, UniProt P49761); test: Selectivity interaction (KinomeScan (DiscoverX)) EUB0000655a CLK3; conditions: at 10 µM
# Sequence of Dual specificity protein kinase CLK3 (P49761 whole entry, looked up): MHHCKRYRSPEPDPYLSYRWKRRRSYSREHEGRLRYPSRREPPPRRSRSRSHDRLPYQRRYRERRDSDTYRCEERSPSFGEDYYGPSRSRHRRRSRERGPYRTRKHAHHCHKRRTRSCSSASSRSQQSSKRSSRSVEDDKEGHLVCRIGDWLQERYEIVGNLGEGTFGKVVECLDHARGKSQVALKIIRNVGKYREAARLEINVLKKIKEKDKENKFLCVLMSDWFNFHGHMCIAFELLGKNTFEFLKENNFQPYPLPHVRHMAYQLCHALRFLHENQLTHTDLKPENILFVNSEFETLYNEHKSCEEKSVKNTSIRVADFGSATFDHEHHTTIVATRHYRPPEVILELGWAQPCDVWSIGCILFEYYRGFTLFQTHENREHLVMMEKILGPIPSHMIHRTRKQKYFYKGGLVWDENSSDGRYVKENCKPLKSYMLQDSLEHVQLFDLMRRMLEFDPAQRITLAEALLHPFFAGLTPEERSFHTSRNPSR
# [4] = target: Tyrosine-protein kinase SYK (Homo sapiens, UniProt P43405); test: Selectivity interaction (Millipore kinase profiler) EUB0000124b SYK; conditions: at 10 µM
# [5] = target: Ribosomal protein S6 kinase alpha-6 (Homo sapiens, UniProt Q9UK32); test: Selectivity interaction (KinomeScan (DiscoverX)) EUB0000618a RPS6KA6; conditions: at 10 µM
# Sequence of Ribosomal protein S6 kinase alpha-6 (Q9UK32 whole entry): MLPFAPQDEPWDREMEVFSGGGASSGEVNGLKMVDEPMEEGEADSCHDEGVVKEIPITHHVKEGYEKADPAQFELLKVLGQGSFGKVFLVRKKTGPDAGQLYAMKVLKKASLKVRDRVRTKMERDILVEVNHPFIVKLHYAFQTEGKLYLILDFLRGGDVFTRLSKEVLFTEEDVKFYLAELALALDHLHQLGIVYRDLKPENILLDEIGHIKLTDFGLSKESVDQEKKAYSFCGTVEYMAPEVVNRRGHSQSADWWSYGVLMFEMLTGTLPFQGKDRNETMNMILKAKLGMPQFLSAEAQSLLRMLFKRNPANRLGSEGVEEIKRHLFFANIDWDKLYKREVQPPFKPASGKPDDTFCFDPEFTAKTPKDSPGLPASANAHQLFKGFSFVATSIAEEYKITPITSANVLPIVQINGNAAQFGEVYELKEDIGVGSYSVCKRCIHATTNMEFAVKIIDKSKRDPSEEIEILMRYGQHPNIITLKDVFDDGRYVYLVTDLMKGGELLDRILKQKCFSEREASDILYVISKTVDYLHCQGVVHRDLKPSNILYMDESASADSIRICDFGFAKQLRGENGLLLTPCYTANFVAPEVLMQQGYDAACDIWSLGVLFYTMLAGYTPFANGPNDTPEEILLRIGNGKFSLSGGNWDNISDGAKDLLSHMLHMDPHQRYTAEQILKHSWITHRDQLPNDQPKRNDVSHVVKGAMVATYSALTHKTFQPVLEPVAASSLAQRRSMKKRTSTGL
# [6] = target: BMP-2-inducible protein kinase (Homo sapiens) (UniProt Q9NSY1); test: Selectivity interaction (KinomeScan (DiscoverX)) EUB0000607a BMP2K; conditions: at 10 µM
# Sequence of BMP-2-inducible protein kinase (Homo sapiens) (Q9NSY1 whole entry, looked up): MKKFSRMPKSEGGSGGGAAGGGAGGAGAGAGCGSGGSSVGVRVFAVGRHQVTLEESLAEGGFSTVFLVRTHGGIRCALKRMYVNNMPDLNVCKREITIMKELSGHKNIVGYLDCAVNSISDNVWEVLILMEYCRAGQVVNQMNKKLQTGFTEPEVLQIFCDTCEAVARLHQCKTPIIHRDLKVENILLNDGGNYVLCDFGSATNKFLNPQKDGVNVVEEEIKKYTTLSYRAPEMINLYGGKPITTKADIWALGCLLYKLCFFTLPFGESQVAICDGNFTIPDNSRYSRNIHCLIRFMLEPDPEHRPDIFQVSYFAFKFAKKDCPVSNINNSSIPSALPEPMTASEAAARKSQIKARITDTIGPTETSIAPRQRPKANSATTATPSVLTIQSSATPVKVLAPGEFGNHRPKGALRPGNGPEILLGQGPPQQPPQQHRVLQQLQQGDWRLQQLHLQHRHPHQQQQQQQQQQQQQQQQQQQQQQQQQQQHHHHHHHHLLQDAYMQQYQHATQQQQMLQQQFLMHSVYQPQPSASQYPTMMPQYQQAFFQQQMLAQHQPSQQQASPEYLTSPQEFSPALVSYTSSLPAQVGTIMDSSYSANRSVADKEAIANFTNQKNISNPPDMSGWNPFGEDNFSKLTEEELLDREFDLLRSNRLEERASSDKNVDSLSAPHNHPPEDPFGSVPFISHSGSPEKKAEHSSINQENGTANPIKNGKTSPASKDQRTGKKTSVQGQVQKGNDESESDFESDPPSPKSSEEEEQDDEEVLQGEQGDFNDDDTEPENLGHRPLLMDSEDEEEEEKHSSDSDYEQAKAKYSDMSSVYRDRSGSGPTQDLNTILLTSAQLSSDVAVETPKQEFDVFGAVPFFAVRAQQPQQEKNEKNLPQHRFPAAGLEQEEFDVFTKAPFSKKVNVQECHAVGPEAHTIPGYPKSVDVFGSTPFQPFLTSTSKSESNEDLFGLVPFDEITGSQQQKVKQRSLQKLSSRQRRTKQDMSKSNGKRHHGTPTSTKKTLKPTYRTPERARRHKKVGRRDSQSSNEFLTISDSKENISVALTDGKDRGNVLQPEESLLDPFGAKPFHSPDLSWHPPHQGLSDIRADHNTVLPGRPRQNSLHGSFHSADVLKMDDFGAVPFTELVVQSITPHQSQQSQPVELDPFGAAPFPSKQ
# [7] = target: 5'-AMP-activated protein kinase catalytic subunit alpha-1 (Homo sapiens, UniProt Q13131); test: Selectivity interaction (KinomeScan (DiscoverX)) EUB0000607a PRKAA1; conditions: at 10 µM
# Sequence of 5'-AMP-activated protein kinase catalytic subunit alpha-1 (Q13131 whole entry, looked up): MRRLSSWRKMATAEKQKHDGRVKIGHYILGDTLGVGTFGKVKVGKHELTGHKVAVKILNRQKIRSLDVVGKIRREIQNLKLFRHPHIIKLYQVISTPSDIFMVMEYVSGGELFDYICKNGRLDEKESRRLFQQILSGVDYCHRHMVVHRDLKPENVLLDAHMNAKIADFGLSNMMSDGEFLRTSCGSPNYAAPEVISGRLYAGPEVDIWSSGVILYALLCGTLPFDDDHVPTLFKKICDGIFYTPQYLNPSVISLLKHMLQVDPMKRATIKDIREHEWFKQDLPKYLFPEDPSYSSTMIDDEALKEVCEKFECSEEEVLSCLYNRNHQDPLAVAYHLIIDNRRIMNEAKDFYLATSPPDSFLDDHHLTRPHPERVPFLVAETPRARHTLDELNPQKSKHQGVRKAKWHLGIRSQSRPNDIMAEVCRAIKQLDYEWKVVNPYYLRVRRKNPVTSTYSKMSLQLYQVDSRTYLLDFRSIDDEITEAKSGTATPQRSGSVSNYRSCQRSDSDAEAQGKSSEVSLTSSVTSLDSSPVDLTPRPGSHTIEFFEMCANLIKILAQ
# [8] = target: Ribosomal protein S6 kinase alpha-3 (Homo sapiens, UniProt P51812); test: Selectivity interaction (Kinase panel (KiNativ target engagement assay in Jurkat cells)) EUB0001635a RPS6KA3; type: cell-based; conditions: Selectivity number of off-targets 0.0, Selectivity number of targets 233.0, Source Knowledge https://www.sciencedirect.com/science/article/pii/S2451945619300674?via%3Dihub, at 1 µM
# Sequence of Ribosomal protein S6 kinase alpha-3 (P51812 whole entry, the tested form may be a part): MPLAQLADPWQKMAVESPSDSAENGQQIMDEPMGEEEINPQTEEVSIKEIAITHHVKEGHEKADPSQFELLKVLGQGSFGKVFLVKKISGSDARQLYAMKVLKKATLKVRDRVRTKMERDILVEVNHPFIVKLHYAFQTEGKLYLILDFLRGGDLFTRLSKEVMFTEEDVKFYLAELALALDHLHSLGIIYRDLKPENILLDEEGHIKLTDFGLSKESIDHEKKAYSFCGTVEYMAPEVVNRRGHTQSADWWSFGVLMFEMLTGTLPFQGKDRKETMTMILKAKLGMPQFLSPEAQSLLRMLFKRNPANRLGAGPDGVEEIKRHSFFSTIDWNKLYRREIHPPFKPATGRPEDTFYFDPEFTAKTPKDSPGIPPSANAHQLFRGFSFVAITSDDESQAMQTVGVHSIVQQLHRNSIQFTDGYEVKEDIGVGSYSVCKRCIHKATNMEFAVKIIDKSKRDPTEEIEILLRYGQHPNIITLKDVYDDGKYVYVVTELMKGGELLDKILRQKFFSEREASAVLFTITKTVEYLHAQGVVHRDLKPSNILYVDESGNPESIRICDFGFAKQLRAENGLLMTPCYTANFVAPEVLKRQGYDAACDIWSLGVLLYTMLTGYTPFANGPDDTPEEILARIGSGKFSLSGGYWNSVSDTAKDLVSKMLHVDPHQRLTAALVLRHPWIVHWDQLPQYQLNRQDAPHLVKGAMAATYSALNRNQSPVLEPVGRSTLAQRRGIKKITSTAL
# [9] = target: T2, Bromodomain-containing protein 1 (Homo sapiens) (UniProt O95696); test: Selectivity interaction (PWWP, WD40, and Tudor domain panel (DSLS measurements, literature)) EUB0000270b BRD1
# T2 sequence (whole entry): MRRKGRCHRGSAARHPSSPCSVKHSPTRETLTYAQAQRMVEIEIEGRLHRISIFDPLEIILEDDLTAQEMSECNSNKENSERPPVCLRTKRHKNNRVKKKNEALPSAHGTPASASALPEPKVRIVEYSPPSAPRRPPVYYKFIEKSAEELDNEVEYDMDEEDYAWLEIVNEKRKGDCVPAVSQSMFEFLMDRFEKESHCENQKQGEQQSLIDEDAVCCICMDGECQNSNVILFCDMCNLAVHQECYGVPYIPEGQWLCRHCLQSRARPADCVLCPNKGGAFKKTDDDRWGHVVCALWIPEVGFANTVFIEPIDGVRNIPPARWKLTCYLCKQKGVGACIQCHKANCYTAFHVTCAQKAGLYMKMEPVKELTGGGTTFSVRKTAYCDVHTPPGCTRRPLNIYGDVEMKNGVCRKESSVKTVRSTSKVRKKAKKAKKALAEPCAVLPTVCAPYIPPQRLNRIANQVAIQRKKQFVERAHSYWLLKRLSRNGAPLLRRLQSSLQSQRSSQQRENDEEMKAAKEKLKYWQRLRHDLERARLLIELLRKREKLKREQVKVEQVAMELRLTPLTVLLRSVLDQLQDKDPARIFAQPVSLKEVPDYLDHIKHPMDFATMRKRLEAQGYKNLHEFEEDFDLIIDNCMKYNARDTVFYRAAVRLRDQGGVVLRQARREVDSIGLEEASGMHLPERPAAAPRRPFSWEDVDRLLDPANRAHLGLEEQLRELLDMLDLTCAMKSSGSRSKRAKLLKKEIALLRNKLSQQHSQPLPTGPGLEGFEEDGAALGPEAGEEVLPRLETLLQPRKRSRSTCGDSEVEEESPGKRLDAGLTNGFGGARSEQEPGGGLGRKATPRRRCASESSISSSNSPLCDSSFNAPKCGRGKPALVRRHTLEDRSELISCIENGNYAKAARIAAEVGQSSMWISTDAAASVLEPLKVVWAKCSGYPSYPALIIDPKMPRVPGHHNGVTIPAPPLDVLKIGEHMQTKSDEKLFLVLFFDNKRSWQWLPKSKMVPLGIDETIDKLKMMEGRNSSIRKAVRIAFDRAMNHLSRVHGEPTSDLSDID
# [10] = target: Cyclin-dependent kinase 5 (Homo sapiens, UniProt Q00535); test: Selectivity interaction (KinomeScan (DiscoverX)) EUB0000092b CDK5; conditions: at 10 µM
# Sequence of Cyclin-dependent kinase 5 (Q00535 whole entry, looked up): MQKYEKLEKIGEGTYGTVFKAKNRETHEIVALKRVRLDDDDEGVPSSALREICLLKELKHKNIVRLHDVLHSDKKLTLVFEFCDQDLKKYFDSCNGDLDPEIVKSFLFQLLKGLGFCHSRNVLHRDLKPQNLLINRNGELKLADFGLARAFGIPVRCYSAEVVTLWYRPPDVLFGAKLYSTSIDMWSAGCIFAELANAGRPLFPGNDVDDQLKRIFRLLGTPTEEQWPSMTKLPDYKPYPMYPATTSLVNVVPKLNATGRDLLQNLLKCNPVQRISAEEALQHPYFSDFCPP
# Sequence of Serine/threonine-protein kinase N2 (Q16513 whole entry, looked up): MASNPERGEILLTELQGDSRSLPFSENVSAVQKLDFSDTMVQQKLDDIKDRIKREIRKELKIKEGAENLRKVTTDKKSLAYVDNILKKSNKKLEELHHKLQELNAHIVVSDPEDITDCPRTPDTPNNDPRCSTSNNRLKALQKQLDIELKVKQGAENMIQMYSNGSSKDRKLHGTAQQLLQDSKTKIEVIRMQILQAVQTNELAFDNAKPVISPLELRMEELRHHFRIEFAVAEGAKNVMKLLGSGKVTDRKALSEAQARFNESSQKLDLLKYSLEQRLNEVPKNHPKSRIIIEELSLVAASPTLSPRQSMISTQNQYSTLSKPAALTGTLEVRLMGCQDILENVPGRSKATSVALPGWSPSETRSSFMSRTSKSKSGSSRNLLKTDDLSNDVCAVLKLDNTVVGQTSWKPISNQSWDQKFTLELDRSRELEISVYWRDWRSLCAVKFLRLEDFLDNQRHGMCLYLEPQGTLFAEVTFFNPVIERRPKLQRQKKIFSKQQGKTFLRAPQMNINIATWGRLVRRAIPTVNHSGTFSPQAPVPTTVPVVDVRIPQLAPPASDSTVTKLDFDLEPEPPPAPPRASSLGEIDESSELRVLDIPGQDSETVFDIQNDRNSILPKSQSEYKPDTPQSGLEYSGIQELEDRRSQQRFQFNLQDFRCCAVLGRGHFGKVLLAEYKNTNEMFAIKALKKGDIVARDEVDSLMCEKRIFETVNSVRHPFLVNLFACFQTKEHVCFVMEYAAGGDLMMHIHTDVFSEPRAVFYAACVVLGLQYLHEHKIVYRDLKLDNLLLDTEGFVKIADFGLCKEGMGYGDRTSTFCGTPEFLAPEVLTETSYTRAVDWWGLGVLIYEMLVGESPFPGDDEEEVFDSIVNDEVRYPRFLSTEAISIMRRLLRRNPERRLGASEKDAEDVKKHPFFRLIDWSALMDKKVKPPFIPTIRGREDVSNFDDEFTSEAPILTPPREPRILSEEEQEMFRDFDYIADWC
compound,measurement,setting,value
CN(C)C/C=C/C(=O)Nc1ccc(C(=O)N2CCCC(Nc3ncc(Cl)c(-c4c[nH]c5ccccc45)n3)C2)cc1 (stereo not given),% of control,[1],98%
same,% of control,[2],92%
CN(C)CCOc1ccc(-c2nc(-c3ccncc3)c(-c3ccc4c(c3)CC/C4=N\O)[nH]2)cc1,% of control,[3],98%
CC(=O)Nc1cccc(-n2c(=O)n(C3CC3)c(=O)c3c(Nc4ccc(I)cc4F)n(C)c(=O)c(C)c32)c1,% of control,[4],74%
O[C@H]1CC[C@H](Nc2ncc3nc(Nc4c(F)cc(F)cc4F)n([C@H]4CCOC4)c3n2)CC1,% of control,[5],49%
CNC(=O)Nc1ccc(-c2nc(N3CC4CCC(C3)O4)c3cnn(C4CCC5(CC4)OCCO5)c3n2)cc1,% of control,[6],85%
same,% of control,[7],94%
C=CC(=O)Nc1ccc(C(=O)Nc2[nH]nc3c2CN(C(=O)N[C@H](CN(C)C)c2ccccc2)C3(C)C)cc1,% of engagement,[8],13.1%
Cc1cc(CN)cc(C)c1-c1ncn(C)c1-c1cncn1C,dTagg,[9],-2.2 K
CCC(=O)N1CCN(c2ccc(-n3c(=O)ccc4cnc5ccc(-c6cnc7ccccc7c6)cc5c43)cc2C(F)(F)F)CC1,% of control,[10],100%
